These results are taken from patent US9856254B2, “Alkoxy substituted imidazoquinolines” (3M INNOVATIVE PROPERTIES COMPANY, priority 2003, dated 2018).

Broadly, the melting point is the temperature, or range, at which the solid turns liquid.

`CCCc1nc2c(N)nc3cc(OCCCNC(=O)NS(=O)(=O)c4ccc(F)cc4)ccc3c2n1CC(C)C` [Example 21, N-{[(3-{[4-Amino-1-(2-methylpropyl)-2-propyl-1H-imidazo[4,5-c]quinolin-7-yl]oxy}propyl)amino]carbonyl}-4-fluorobenzenesulfonamide] returned a melting point of 194 to 198 °C.
Regarding `CCCc1nc2c(N)nc3cc(OCCC4CCN(C(=O)OC(C)(C)C)CC4)ccc3c2n1CC(C)C` [Example 22, tert-Butyl 4-(2-{[4-amino-1-(2-methylpropyl)-2-propyl-1H-imidazo[4,5-c]quinolin-7-yl]oxy}ethyl)piperidine-1-carboxylate], the melting point was in the range of 196.4 to 199.6 °C.
As for `Cc1nc2c(N)nc3cc(OCCC4CCN(C(=O)C(C)C)CC4)ccc3c2n1CC(C)C` [Example 26, 1-(4-{2-[4-Amino-2-methyl-1-(2-methylpropyl)-1H-imidazo[4,5-c]quinolin-7-yloxy]ethyl}piperidin-1-yl)-2-methylpropan-1-one], the figure is 205.1 to 207.1 °C.
Take `Cc1nc2c(N)nc3cc(OCCC4CCN(C(=O)C5CCCC5)CC4)ccc3c2n1CC(C)C` [Example 27, 7-{2-[1-(Cyclopentylcarbonyl)piperidin-4-yl]ethoxy}-2-methyl-1-(2-methylpropyl)-1H-imidazo[4,5-c]quinolin-4-amine]: the melting point was in the range of 235.7 to 238.1 °C.
Regarding `Cc1nc2c(N)nc3cc(OCCC4CCN(C(=O)N5CCOCC5)CC4)ccc3c2n1CC(C)C` [Example 28, 2-Methyl-1-(2-methylpropyl)-7-{2-[1-(morpholin-4-ylcarbonyl)piperidin-4-yl]ethoxy}-1H-imidazo[4,5-c]quinolin-4-amine], the melting point is 205 to 208 °C.
As to `CCc1nc2c(N)nc3cc(OCC(=O)N4CCOCC4)ccc3c2n1CC(C)C` [Example 30, 2-Ethyl-1-(2-methylpropyl)-7-(2-morpholin-4-yl-2-oxoethoxy)-1H-imidazo[4,5-c]quinolin-4-amine], the melting point lay in the range of 219 to 220 °C.
Consider `CCCCc1nc2c(N)nc3ccc(OCC(=O)N4CCOCC4)cc3c2n1C` [Example 32, 2-Butyl-1-methyl-8-(2-morpholin-4-yl-2-oxoethoxy)-1H-imidazo[4,5-c]quinolin-4-amine], for which the melting point lay within 256.8 to 257.2 °C.
As for `CCCCc1nc2c(N)nc3ccc(OCC(=O)N4CCCCC4)cc3c2n1C` [Example 33, 2-Butyl-1-methyl-8-(2-oxo-2-piperidin-1-ylethoxy)-1H-imidazo[4,5-c]quinolin-4-amine], the melting point was in the range of 222.5 to 223.4 °C.
As for `CCCCc1nc2c(N)nc3ccc(OCC(=O)N(C)Cc4ccccc4)cc3c2n1C` [Example 34, 2-[(4-Amino-2-butyl-1-methyl-1H-imidazo[4,5-c]quinolin-8-yl)oxy]-N-benzyl-N-methylacetamide], the figure is 167.4 to 168.8 °C; as for `CCCCc1nc2c(N)nc3ccc(OCC(=O)N(CC)CC)cc3c2n1C` [Example 35, 2-[(4-Amino-2-butyl-1-methyl-1H-imidazo[4,5-c]quinolin-8-yl)oxy]-N,N-diethylacetamide], 185.9 to 188.1 °C; as for `CCCCc1nc2c(N)nc3ccc(OCC(=O)N(CCOC)CCOC)cc3c2n1C` [Example 36, 2-[(4-Amino-2-butyl-1-methyl-1H-imidazo[4,5-c]quinolin-8-yl)oxy]-N,N-bis(2-methoxyethyl)acetamide], 125 to 128 °C.
For the compound `CCCCc1nc2c(N)nc3ccc(OCCC4CCN(C(=O)OC(C)(C)C)CC4)cc3c2n1C` [Example 37, tert-Butyl 4-[2-(4-amino-2-butyl-1-methyl-1H-imidazo[4,5-c]quinolin-8-yloxy)ethyl]piperidine-1-carboxylate], the melting point is 171.1 to 173.2 °C.
`CCCCc1nc2c(N)nc3ccc(OCCC4CCNCC4)cc3c2n1C` [Example 38, 2-Butyl-1-methyl-8-(2-piperidin-4-ylethoxy)-1H-imidazo[4,5-c]quinolin-4-amine] displayed a melting point of 210 to 212 °C.
Consider `CCCCc1nc2c(N)nc3ccc(OCCC4CCN(C(=O)C(C)C)CC4)cc3c2n1C` [Example 39, 1-{4-[2-(4-Amino-2-butyl-1-methyl-1H-imidazo[4,5-c]quinolin-8-yloxy)ethyl]piperidin-1-yl}-2-methylpropan-1-one], for which the melting point fell in the range of 189.4 to 192.6 °C.
On to `CCCCc1nc2c(N)nc3ccc(OCCC4CCN(C(=O)C5CCCC5)CC4)cc3c2n1C` [Example 40, 2-Butyl-8-{2-[1-(cyclopentylcarbonyl)piperidin-4-yl]ethoxy}-1-methyl-1H-imidazo[4,5-c]quinolin-4-amine], for which the melting point is 147.2 to 150.1 °C.
The compound `CCCCc1nc2c(N)nc3ccc(OCCC4CCN(S(C)(=O)=O)CC4)cc3c2n1C` [Example 41, 2-Butyl-8-{2-[1-(methanesulfonyl)piperidin-4-yl]ethoxy}-1-methyl-1H-imidazo[4,5-c]quinolin-4-amine] gave a melting point of 198 to 199.5 °C.
For `CCCCc1nc2c(N)nc3ccc(OCCC4CCN(C(=O)N5CCOCC5)CC4)cc3c2n1C` [Example 42, 2-Butyl-1-methyl-8-{2-[1-(morpholin-4-ylcarbonyl)piperidin-4-yl]ethoxy}-1H-imidazo[4,5-c]quinolin-4-amine] the value was 152.8 °C (dec.); for `CCCCc1nc2c(N)nc3ccc(OCCNC(=O)CC)cc3c2n1C` [Example 43, N-[2-(4-Amino-2-butyl-1-methyl-1H-imidazo[4,5-c]quinolin-8-yloxy)ethyl]propanamide], 250 to 255 °C (dec.); for `Cc1nc2c(N)nc3ccc(OCC(=O)O)cc3c2n1C` [Example 44, 2-[(4-Amino-1,2-dimethyl-1H-imidazo[4,5-c]quinolin-8-yl)oxy]acetic acid], 298 °C (dec.).
In turn, `CCOCc1nc2c(N)nc3cc(OCCCCCCNS(C)(=O)=O)ccc3c2n1CC(C)(C)NS(C)(=O)=O` [Example 45, N-(2-{4-Amino-2-ethoxymethyl-7-[6-(methanesulfonylamino)hexyloxy]-1H-imidazo[4,5-c]quinolin-1-yl}-1,1-dimethylethyl)methanesulfonamide] came in with a melting point of 176 to 180 °C.
For `CCOCc1nc2c(N)nc3cc(OCCCCCCNC(C)=O)ccc3c2n1CC(C)(C)NS(C)(=O)=O` [Example 46, N-(6-{[4-Amino-2-ethoxymethyl-1-(2-methanesulfonylamino-2-methylpropyl)-1H-imidazo[4,5-c]quinolin-7-yl]oxy}hexyl)acetamide] the value was 169 to 171 °C; for `CCCc1nc2c(N)nc3cc(OCCCCCCNS(C)(=O)=O)ccc3c2n1CCCCNS(C)(=O)=O` [Example 47, N-(4-{4-Amino-7-[6-(methanesulfonylamino)hexyloxy]-2-propyl-1H-imidazo[4,5-c]quinolin-1-yl}butyl)methanesulfonamide], 138 to 140 °C; for `CCCc1nc2c(N)nc3cc(OCCCCCCNC(C)=O)ccc3c2n1CCCCNS(C)(=O)=O` [Example 48, N-(6-{4-Amino-1-[4-(methanesulfonylamino)butyl]-2-propyl-1H-imidazo[4,5-c]quinolin-7-yloxy}hexyl)acetamide], 168 to 172 °C.
As for `CCOCc1nc2c(N)nc3cc(OCCCCCCNC(C)=O)ccc3c2n1CC(C)(C)NC(C)=O` [Example 50, N-(2-{7-[6-(Acetylamino)hexyloxy]-4-amino-2-ethoxymethyl-1H-imidazo[4,5-c]quinolin-1-yl}-1,1-dimethylethyl)acetamide], the figure is 190 to 192 °C.
As for `CCc1nc2c(N)nc3cc(OCC(=O)C(C)(C)C)ccc3c2n1CCOc1ccccc1` [Example 52, 1-[4-Amino-2-ethyl-1-(2-phenoxyethyl)-1H-imidazo[4,5-c]quinolin-7-yloxy]-3,3-dimethylbutan-2-one], the figure is 238 to 239 °C (dec.); as for `CCc1nc2c(N)nc3cc(OCC(=O)N4CCOCC4)ccc3c2n1CCOc1ccccc1` [Example 53, 2-Ethyl-7-(2-morpholin-4-yl-2-oxoethoxy)-1-(2-phenoxyethyl)-1H-imidazo[4,5-c]quinolin-4-amine], 208 to 209 °C.
On to `CCCc1nc2c(N)nc3cc(OCC4CCCCO4)ccc3c2n1CC(C)C` (stereo not drawn) [Example 54, 1-(2-Methylpropyl)-2-propyl-7-(tetrahydropyran-2-ylmethoxy)-1H-imidazo[4,5-c]quinolin-4-amine], for which the melting point is 126 °C (dec.).
The compound `CCCc1nc2c(N)nc3cc(OC4CCOC4)ccc3c2n1CC(C)C` (stereo not drawn) [Example 55, 1-(2-Methylpropyl)-2-propyl-7-(tetrahydrofuran-3-yloxy)-1H-imidazo[4,5-c]quinolin-4-amine] displayed a melting point of 178 to 182 °C.
As for `CCCn1c(CCOC)nc2c(N)nc3cc(OC4CCOC4)ccc3c21` (stereo not drawn) [Example 56, 2-(2-Methoxyethyl)-1-propyl-7-(tetrahydrofuran-3-yloxy)-1H-imidazo[4,5-c]quinolin-4-amine], the figure is 192 to 194 °C; as for `CCCn1c(CCOC)nc2c(N)nc3cc(OC(=O)NC(C)C)ccc3c21` [Example 366, 4-Amino-2-(2-methoxyethyl)-1-propyl-1H-imidazo[4,5-c]quinolin-7-yl isopropylcarbamate], 144 to 146 °C; as for `CCOCc1nc2c(N)nc3cc(OCCCCCCNC(=S)NC(C)C)ccc3c2n1CC(C)(C)NC(C)=O` [Example 368, N-(2-{4-Amino-2-(ethoxymethyl)-7-[(6-{[(isopropylamino)carbonothioyl]amino}hexyl)oxy]-1H-imidazo[4,5-c]quinolin-1-yl}-1,1-dimethylethyl)acetamide], 110 to 120 °C.
For `CCOCc1nc2c(N)nc3cc(OCCCCCCNC(=O)NC(C)C)ccc3c2n1CC(C)(C)NC(=O)NC(C)C` [Example 369, N-(2-{4-Amino-2-(ethoxymethyl)-7-[(6-{[(isopropylamino)carbonyl]amino}hexyl)oxy]-1H-imidazo[4,5-c]quinolin-1-yl}-1,1-dimethylethyl)-N′-isopropylurea] the value was 205 to 209 °C; for `CCOCc1nc2c(N)nc3cc(OCCCCCCNC(C)=O)ccc3c2n1CC(C)(C)NC(=O)NC(C)C` [Example 370, N-(6-{[4-Amino-2-(ethoxymethyl)-1-(2-{[(isopropylamino)carbonyl]amino}-2-methylpropyl)-1H-imidazo[4,5-c]quinolin-7-yl]oxy}hexyl)acetamide], 90 to 110 °C.
